According to patent publication US20120010115A1, “PRESERVATIVE SYSTEM AND COMPOSITION BASED ON GLYCINATE AND DIHYDROXYPROPYL QUATERNARY AMMONIUM SALT COMBINATION” (CONOPCO, INC., D/B/A UNILEVER, priority 2010, published 2012):

Test system: Pseudomonas aeruginosa ATCC 9027
Test: Challenge Test for the Evaluation of Preservative Capacity of Liquid Detergent and Personal Products
Format: cell-based
Details: aqueous formula, each active 5%, pH 7.6, inoculum 1.06E+07 (Log 7)
Experimental: Experiments were conducted to evaluate antimicrobial activity against Pseudomonas aeruginosa of aqueous formulas containing 2,3-dihydroxypropyl trimethyl ammonium chloride (Glyceryl Quat), sodium cocoyl glycinate and combinations of these two materials. Samples were prepared at room temperature by mixing together sodium cocoyl glycinate and/or Glyceryl Quat and water. The pH was adjusted by addition of aqueous hydrochloric acid to reach a 7.6 value. Amounts of each of the active components was 5%. Test Method: Challenge Test for the Evaluation of Preservative Capacity of Liquid Detergent and Personal Products Test Microorganism: Pseudomonas aeruginosa ATCC 9027 obtained from American Type Culture Collection, Manassas, Va. 20108. Procedure: 20 grams of product were inoculated with 0.2 ml of the microorganism at a level of 1.06E+07 or Log 7. A single inoculation was performed. At 2 day, 7 day, 14 day and 21 day time points after inoculation a 1 gram sample was aseptically removed into a neutralizing fluid (TAT Broth) and plated using Letheen Agar. The plates were incubated at 30° C. for 7 days. At the end of the incubation time the plates were removed and examined for microbial growth. Calculation of Log Reduction: The microorganisms recovered were converted into Log10 and compared to initial inoculum count which then determined the Log Reduction. Logarithmic functions are the inverse of exponential functions. Log reduction was determined by the initial inoculum count minus the counts at each sampling time point.

| Compound | Log Reduction Value (2 day after inoculation) | Log Reduction Value (7 day after inoculation) | Log Reduction Value (14 day after inoculation) | Log Reduction Value (21 day after inoculation) |
| --- | --- | --- | --- | --- |
| C[N+](C)(C)CC(O)CO.[Cl-] (centres unmarked) [Glyceryl Quat, 2,3-dihydroxypropyl trimethyl ammonium chloride] | 2.1 | 1.5 | 2.8 | 3.4 |
| sodium cocoyl glycinate | 1.1 | 1.1 | 0.8 | 0.2 |
